Source: patent US6380255B1, “Treatment for dermal skin atrophy using thyroid hormone compounds or thyroid hormone-like compounds” (Karo Bio AB, priority 1995, dated 2002)
“And” between values parts separate entries of the source, which are not always exact repeats. Equal values may be shown once.

System: Balb/c mice
Experiment: Prevention of glucocorticoid (betamethasone)-induced dermal atrophy in normal mice, dermis thickness in Van Gieson stained biopsies
Assay type: in vivo, mouse
Settings: for Thickness of dermis (mm) in 5 low power fields (×10) / Thickness of dermis, mean (mm): one week
Text: Normal Balb/c mice were used for the experiments. […] Therefore each averaged measurement represents 25 determinations.
In FIGS. 1-3, the arrows show the dermal layer which is predominantly collagen fibers.

[1] = Bet. 0.2 mM + 0.0008 mM test compound, topical daily
[2] = Bet. 0.2 mM + 0.008 mM test compound, topical daily
[3] = Bet. 0.2 mM + 0.08 mM test compound, topical daily
[4] = Bet. 0.2 mM + 0.8 mM test compound, topical daily

SMILES | Thickness of dermis (mm) in 5 low power fields (×10) [1] | Thickness of dermis, mean (mm) [1] [mm] | Thickness of dermis (mm) in 5 low power fields (×10) [2] | Thickness of dermis, mean (mm) [2] [mm] | Thickness of dermis (mm) in 5 low power fields (×10) [3] | Thickness of dermis, mean (mm) [3] [mm] | Thickness of dermis (mm) in 5 low power fields (×10) [4] | Thickness of dermis, mean (mm) [4] [mm] | Thickness of dermis, mean (mm) (Bet. 0.2 mM + placebo cr. (hydrophilic cream)) | Thickness of dermis (mm) in 5 low power fields (×10) (Bet. 0.2 mM + placebo cr. (hydrophilic cream), listed as Bet.) | Thickness of dermis, mean (mm) (Betamethasone 0.2 mM alone, 100 μl topical daily) | Appearance of dermis in biopsy micrograph (FIG. 1) (betamethasone alone for one week) | Thickness of dermis (mm) in 5 low power fields (×10) (0.8 mM test compound alone (no betamethasone)) | Appearance of dermis in biopsy micrograph (FIG. 3) (Triac alone for one week) | Concentration at which the effect on betamethasone-induced atrophy saturates (range 0.0008 to 8 mM)
O=C(O)CCc1cc(I)c(Oc2ccc(O)c(I)c2)c(I)c1 [TriProp] | 0.41 mm and 0.40 mm and 0.46 mm | 0.42 | 0.45 mm and 0.50 mm and 0.40 mm and 0.42 mm and 0.48 mm | 0.45 | 0.50 mm and 0.48 mm and 0.47 mm and 0.44 mm | 0.48 | 0.50 mm and 0.45 mm and 0.47 mm and 0.48 mm and 0.52 mm | 0.48 | – | – | – | – | – | – | –
OCc1cc(I)c(Oc2ccc(O)c(I)c2)c(I)c1 [KB-026, 4-(4-hydroxymethyl-2,6-diiodophenoxy)-2-iodo-phenol] | 0.40 mm and 0.41 mm and 0.42 mm | 0.41 | 0.45 mm and 0.42 mm and 0.46 mm and 0.44 mm | 0.44 | 0.44 mm and 0.50 mm and 0.49 mm and 0.46 mm | 0.48 | 0.50 mm and 0.52 mm and 0.48 mm and 0.51 mm | 0.50 | – | – | – | – | – | – | –
C[C@H]1C[C@H]2[C@@H]3CCC4=CC(=O)C=C[C@]4(C)[C@@]3(F)[C@@H](O)C[C@]2(C)[C@@]1(O)C(=O)CO [Betamethasone, betamethasone, reference compound] | – | – | – | – | – | – | – | – | 0.40 | 0.40 mm and 0.42 mm and 0.38 mm and 0.39 mm | 0.37 mm and 0.42 mm | very thinned | – | – | –
CC(C)c1cc(Oc2c(Br)cc(Cc3nnn[nH]3)cc2Br)ccc1O [KB-067, 4-[2,6-dibromo-4-(1H-tetrazol-5-ylmethyl)-phenoxy]-2-isopropyl-phenol] | 0.42 mm and 0.39 mm and 0.40 mm | 0.40 | 0.40 mm and 0.39 mm and 0.41 mm | 0.40 | 0.40 mm and 0.41 mm and 0.39 mm | 0.40 | 0.45 mm and 0.46 mm and 0.47 mm and 0.48 mm | 0.46 | – | – | – | – | – | – | –
O=C(O)Cc1cc(I)c(Oc2ccc(O)c(I)c2)c(I)c1 [TriAc, [4-(4-hydroxy-3-iodophenoxy)-3,5-diiodophenyl]acetic acid] | 0.40 mm and 0.36 mm and 0.38 mm | 0.38 | 0.40 mm and 0.44 mm | 0.45 | – | – | – | – | – | – | – | – | 0.72 mm and 0.82 mm and 0.84 mm and 0.76 mm | very dense and thicker than that shown in FIG. 2 | approximately 0.8 mM
